Source: patent publication US20150196490A1 (priority 2011, published 2015)

System: sweat production
Conditions: human, in vivo

Compound | greater effectiveness in reducing sweat production than placebo | greater reduction in sweat production than the control group | reduction in sweat production | subjects with at least a 30% reduction in sweat production compared to Baseline
CCCCCCCCCCCCCC(=O)OC(C)C [Isopropyl Myristate] | 191% | 195% | 103 mg | 55%
CCCOC(=O)c1ccc(O)cc1 [Propylparaben] | 245% | 337% | 177 mg | 70%
Polysorbate 80 | 280% | 300% | 159 mg | 80%
